Each structure is given as a SMILES string.

The melting point is the temperature, or range, at which the solid turns liquid. `COc1ccc(-c2ccccc2C(=O)Nc2ccc(N3CCN(Cc4cccc(C#N)c4)CC3)cc2)cc1OC` [Example 26, 3′,4′-Dimethoxy-biphenyl-2-carboxylic acid [4-[4-(3-cyano-benzyl)-piperazin-1-yl]-phenyl]-amide]: the melting point was in the range of 116 to 120 °C.

The compound `O=C(Nc1ccc(N2CCN(Cc3ccco3)CC2)cc1)c1ccccc1-c1ccc(C(F)(F)F)cc1` [Example 67, 4′-Trifluoromethyl-biphenyl-2-carboxylic acid [4-(4-furan-2-ylmethyl-piperazin-1-yl)-phenyl]-amide] registered a melting point of 173 to 175 °C.

`O=C(Nc1ccc(N2CCN(Cc3c[nH]c4ccc(F)cc34)CC2)cc1)c1ccccc1-c1ccc(C(F)(F)F)cc1` [Example 73, 4′-Trifluoromethyl-biphenyl-2-carboxylic acid {4-[4-(5-fluoro-1H-indol-3-ylmethyl)-piperazin-1-yl]-phenyl}-amide] had a melting point of 168 to 170 °C.

With `Cn1ccnc1CN1CCN(c2ccc(NC(=O)c3ccccc3-c3ccc(C(F)(F)F)cc3)cc2)CC1` [Example 60, 4′-Trifluoromethyl-biphenyl-2-carboxylic acid [4-[4-(1-methyl-1H-imidazol-2-ylmethyl)-piperazin-1-yl)-phenyl]-amide], the melting point fell in the range of 118 to 120 °C.

Take `O=C(Nc1ccc(N2CCN(Cc3cccc([N+](=O)[O-])c3)CC2)cc1)c1ccccc1-c1ccc(C(F)(F)F)cc1` [Example 49, 4′-Trifluoromethyl-biphenyl-2-carboxylic acid [4-(4-(3-nitro-benzyl)-piperazin-1-yl)-phenyl]-amide]: the melting point was in the range of 152 to 154 °C.

In the case of `COc1cccc(CN2CCN(c3ccc(NC(=O)c4ccccc4-c4ccc(C(F)(F)F)cc4)cc3)CC2)c1` (hydrate or solvate) [Example 51, 4′-Trifluoromethyl-biphenyl-2-carboxylic acid [4-[4-(3-methoxy-benzyl)-piperazin-1-yl]-phenyl]-amide], the melting point was in the range of 168 to 170 °C.

In turn, `N#Cc1cccc(CN2CCN(c3ccc(NC(=O)c4ccccc4-c4ccccn4)cc3)CC2)c1` [Example 86, N-{4-[4-(3-Cyano-benzyl)-piperazin-1-yl]-phenyl}-2-pyridin-2-yl-benzamide] showed a melting point of 169 to 171 °C.

`NC(=O)c1cccc(CN2CCN(c3ccc(NC(=O)c4ccccc4-c4ccc(C(F)(F)F)cc4)cc3)CC2)c1` [Example 50, 4′-Trifluoromethyl-biphenyl-2-carboxylic acid {4-[4-(3-carbamoyl-benzyl)-piperazin-1-yl]-phenyl}-amide] had a melting point of 199 to 201 °C.

`O=C(Nc1ccc(N2CCN(CCCC(F)(F)F)CC2)cc1)c1ccccc1-c1ccc(C(F)(F)F)cc1` [Example 45, 4′-Trifluoromethyl-biphenyl-2-carboxylic acid [4-(4-(4,4,4-trifluoro-butyl)-piperazin-1-yl]-phenyl]-amide] displayed a melting point of 198 to 200 °C.

As to `COc1ccc(C(=O)Nc2ccc(N3CCN(Cc4cccc(C#N)c4)CC3)cc2)c(-c2ccc(C(F)(F)F)cc2)c1` [Example 17, 5-Methoxy-4′-trifluoromethyl-biphenyl-2-carboxylic acid [4-[4-(3-cyano-benzyl)-piperazin-1-yl]-phenyl]-amide], the melting point lay in the range of 160 to 164 °C.

Consider `Cc1ccc(-c2ccccc2C(=O)Nc2ccc(N3CCN(Cc4cccc(C#N)c4)CC3)cc2)c(C)c1`, for which the melting point lay in the range of 72 to 76 °C.

In turn, `N#Cc1cc(CN2CCN(c3ccc(NC(=O)c4ccccc4-c4ccc(C(F)(F)F)cc4)cc3)CC2)ccc1F` [Example 47, 4′-Trifluoromethyl-biphenyl-2-carboxylic acid [4-(4-(3-cyano-4-fluoro-benzyl)-piperazin-1-yl)-phenyl]-amide] yielded a melting point of 168 to 170 °C.

As for `O=C(Nc1ccc(N2CCN(Cc3ccsc3)CC2)cc1)c1ccccc1-c1ccc(C(F)(F)F)cc1` [Example 72, 4′-Trifluoromethyl-biphenyl-2-carboxylic acid [4-(4-thiophen-3-ylmethyl-piperazin-1-yl)-phenyl]-amide], the melting point was 187 to 189 °C.

For the compound `COc1cccc(C(=O)Nc2ccc(N3CCN(Cc4cccc(C#N)c4)CC3)cc2)c1-c1ccc(C(F)(F)F)cc1` [Example 8, 6-Methoxy-4′-trifluoromethyl-biphenyl-2-carboxylic acid [4-[4-(3-cyano-benzyl)-piperazin-1-yl]-phenyl]-amide], the melting point was 215 to 217 °C.

Take `COc1ccc(-c2ccc(C(F)(F)F)cc2)c(C(=O)Nc2ccc(N3CCN(Cc4cccc(C#N)c4)CC3)cc2)c1` [Example 19, 4-Methoxy-4′-trifluoromethyl-biphenyl-2-carboxylic acid [4-[4-(3-cyano-benzyl)-piperazin-1-yl]-phenyl]-amide]: the melting point lay in the range of 151 to 155 °C.

`COC(=O)c1cccc(CN2CCN(c3ccc(NC(=O)c4ccccc4-c4ccc(C(F)(F)F)cc4)cc3)CC2)c1` [Example 55, 4′-Trifluoromethyl-biphenyl-2-carboxylic acid [4-[4-(3-carbomethoxy-benzyl)-piperazin-1-yl]-phenyl]-amide] registered a melting point of 190 to 192 °C.

Regarding `CCOCCN1CCN(c2ccc(NC(=O)c3ccccc3-c3ccc(C(F)(F)F)cc3)cc2)CC1` [Example 43, 4′-Trifluoromethyl-biphenyl-2-carboxylic acid [4-(4-(2-ethoxy-ethyl)-piperazin-1-yl]-phenyl]-amide], the melting point was in the range of 176 to 178 °C.

With `N#CCN1CCN(c2ccc(NC(=O)c3ccccc3-c3ccc(C(F)(F)F)cc3)cc2)CC1` [Example 41, 4′-Trifluoromethyl-biphenyl-2-carboxylic acid [4-(4-cyanomethyl-piperazin-1-yl]-phenyl]-amide], the melting point was 244 to 246 °C.

`COc1cccc(C(=O)Nc2ccc(N3CCN(Cc4cccc(C#N)c4)CC3)cc2)c1OCc1ccc(F)cc1` [Example 29, N-[4-[4-(3-Cyano-benzyl)-piperazin-1-yl]-phenyl]-2-(4-fluoro-benzyloxy)-3-methoxy-benzamide]: the melting point lay within 118 to 120 °C.

As to `COc1cccc(C(=O)Nc2ccc(N3CCN(Cc4cccc(C#N)c4)CC3)cc2)c1OCCCc1ccccc1` [Example 33, N-[4-[4-(3-Cyano-benzyl)-piperazin-1-yl]-phenyl]-3-methoxy-2-(3-phenyl-propoxy)-benzamide], the melting point was 134 to 136 °C.

`CC(C)=CCN1CCN(c2ccc(NC(=O)c3ccccc3-c3ccc(C(F)(F)F)cc3)cc2)CC1` [Example 46, 4′-Trifluoromethyl-biphenyl-2-carboxylic acid [4-(4-(3-methyl-but-2-enyl)-piperazin-1-yl]-phenyl]-amide]: the melting point lay in the range of 203 to 205 °C.

Turning to `CC(C)c1ccc(-c2ccccc2C(=O)Nc2ccc(N3CCN(Cc4cccc(C#N)c4)CC3)cc2)cc1` [Example 16, 4′-Isopropyl-biphenyl-2-carboxylic acid [4-[4-(3-cyano-benzyl)-piperazin-1-yl]-phenyl]-amide], the melting point lay within 133 to 135 °C.

As for `N#Cc1cccc(CN2CCN(c3ccc(NC(=O)c4ccccc4-c4ccc(F)cc4)cc3)CC2)c1` [Example 23, 4′-Fluoro-biphenyl-2-carboxylic acid [4-[4-(3-cyano-benzyl)-piperazin-1-yl]-phenyl]-amide], the melting point was 200 to 202 °C.

`N#Cc1cccc(CN2CCN(c3ccc(NC(=O)c4ccccc4-c4ccccc4)cc3)CC2)c1` (hydrate or solvate) [Example 11, Biphenyl-2-carboxylic acid [4-[4-(3-cyano-benzyl)-piperazin-1-yl]-phenyl]-amide] displayed a melting point of 169 to 171 °C.

Compound `N#Cc1cccc(CN2CCN(c3ccc(NC(=O)c4ccccc4Oc4ccccc4)cc3)CC2)c1` (hydrate or solvate) [Example 14, N-[4-[4-(3-Cyano-benzyl)-piperazin-1-yl]-phenyl]-2-phenoxy-benzamide] displayed a melting point of 133 to 134 °C.

`COc1ccc(-c2ccccc2C(=O)Nc2ccc(N3CCN(Cc4cccc(C#N)c4)CC3)cc2)cc1`: the melting point lay within 124 to 128 °C.

`CCCN1CCN(c2ccc(NC(=O)c3ccccc3-c3ccc(C(F)(F)F)cc3)cc2)CC1` [Example 65, 4′-Trifluoromethyl-biphenyl-2-carboxylic acid [4-(4-propyl-piperazin-1-yl)-phenyl]-amide] yielded a melting point of 207 to 209 °C.

Consider `O=C(Nc1ccc(N2CCN(Cc3cc[nH]n3)CC2)cc1)c1ccccc1-c1ccc(C(F)(F)F)cc1` [Example 71, 4′-Trifluoromethyl-biphenyl-2-carboxylic acid {4-[4-(1H-pyrazole-3-ylmethyl)-piperazine-1-yl)-phenyl}-amide], for which the melting point is 194 to 196 °C.

`Cc1ccc(-c2ccccc2C(=O)Nc2ccc(N3CCN(Cc4cccc(C#N)c4)CC3)cc2)cc1C` returned a melting point of 140 to 144 °C.

With `O=C(Nc1ccc(N2CCN(Cc3cnccn3)CC2)cc1)c1ccccc1-c1ccc(C(F)(F)F)cc1` [Example 58, 4′-Trifluoromethyl-biphenyl-2-carboxylic acid [4-(4-pyrazin-2-ylmethyl-piperazin-1-yl)-phenyl]-amide], the melting point was in the range of 183 to 185 °C.

Turning to `Cc1ccc(-c2ccc(C(F)(F)F)cc2)c(C(=O)Nc2ccc(N3CCN(Cc4cccc(C#N)c4)CC3)cc2)c1` [Example 18, 4-Methyl4′-trifluoromethyl-biphenyl-2-carboxylic acid [4-[4-(3-cyano-benzyl)-piperazin-1-yl]-phenyl]-amide], the melting point fell in the range of 120 to 124 °C.

Regarding `N#Cc1cccc(CN2CCN(c3ccc(NC(=O)c4ccccc4OCCC4CCCCC4)cc3)CC2)c1` [Example 32, N-[4-[4-(3-Cyano-benzyl)-piperazin-1-yl]-phenyl]-2-(2-cyclohexyl-ethoxy)-benzamide], the melting point was in the range of 119 to 121 °C.

Source of the values: patent US20040044008A1, “Use of therapeutic benzamide derivatives” (priority 2000, published 2004).
